Test results as given in US20020155172A1, “Methods and compounds for decreasing cell toxicity or death” (priority 2000, published 2002).

Experiments:
Q79-GFP aggregates = assay: Decrease of pre-formed Q79-GFP aggregates in vitro; format: biochemical
Method: Q79-GFP was expressed and purified from bacteria using standard molecular biology techniques. These fusion proteins form aggregates in vitro which can be viewed under an inverted fluorescence microscope. The Q79-GFP aggregates were administered Congo red (1 nM to 100 μM) and the ability of Congo red to decrease the aggregate was visually assessed.
This assay was also carried out on Q79-GFP aggregates that were administered compounds known to disrupt other types of aggregates, for example, beta-amyloid fibril aggregates. The Q79-GFP aggregates were administered Iota-carrageenan, dextran, minocycline, rolitetracycline, or Chrysamine G Congo red (100 μM each), and visually examined for the effect of each compound on disruption of the aggregate, as well as the density and size of the aggregates.

caspase-1, -8, or -11 = assay: Apoptosis induced by overexpression of caspases; format: cell-based
Method: FIG. 5H is a graph of the effects of Congo red on cell death induced by caspase over-expression(caspases-8, -1, or -11).
HeLa cells expressing Q79 expanded polyglutamine repeats were treated with 100 μM Congo red, or 100 μM ZVAD (a positive control) for one hour prior to the addition of the apoptosis-inducing agent, and cell death was determined 48 hours later. […] Finally we tested whether Congo red can inhibit apoptosis induced by overexpression of caspase-1, -8, or -11.

[1] = tested on: semi-purified Q79 oligomers from HeLa cells expressing transfected Q79-GFP; assay: Disassembly of semi-purified Q79 oligomers; format: biochemical; conditions: 25 μM (FIG. 6C); fluorescence microscopy
Method: FIG. 6C is a set of scanned images of the disruption of pre-formed Q79-GFP oligomers by Congo red, minocycline, or rolitetracycline. Lysates from Q79-GFP expressing cells were treated with 25 μM of the indicated compound, and visualized by fluorescence microscopy.
To determine if binding to polyglutamine is sufficient to inhibit the aggregate formation, we compared the ability of minocycline, rolitetracycline, iota carrageenan, dextran, chrysamine G, and Congo red to bind to 81-repeat polyglutamine polypeptide by the chemical absorption assay described above (FIG. 6B). […] To examine the relationship of compound binding and its ability to dissolve expanded polyglutamine aggregates, we tested their effects on semi-purified Q79 oligomers from HeLa cells expressing transfected Q79-GFP, viewed using a microscope.

[2] = tested on: HeLa cells transfected with a Q79-GFP construct; assay: Polyglutamine-induced cell death in HeLa cells; format: cell-based
Method: FIG. 4A is two graphs showing the effect of Congo red, tetracyclines, and sulfated polyanions on polyglutamine-induced cell death in, each graph representing a separate experiment. HeLa cells transfected with a Q79-GFP construct were treated with 100 μM of minocycline (mino), Chrysamine G (CG), Rolitetracycline (Ro), iota carrageenan (iota), dextran 500 (dextran), or Congo red (CR), six hours after transfection. The amount of cell death was determined 48 hours after transfection by morphological criteria as previously described (Sanchez et al., supra).
In a cell expressing Q79-GFP polypeptides, polyglutamine aggregates are formed and the cell dies by apoptosis (Sanchez, supra). Cell viability was determined by morphological criteria characteristic of apoptosis, including cell blebbing, shrinking. Total cell lysates and tissue homogenates were obtained using Buffer A: 1% triton in PBS, containing 10 μg/ml DNAse and protease inhibitors; leupeptin 20 μg/ml, aprotinin 20 u/ml, and PMSF 100 mM. The proteins were separated by 12% SDS/PAGE and transferred to PVDF Immobilon membrane (Millipore, Inc). Antibodies used included rabbit polyclonal antibodies; EM48 (Li et al., Mol. Neurobiol. 20:111-124, 2000) anti-heat shock proteins 40 and 70 (Stressgen, Co.), and rat monoclonal anti-caspase-8 antibody.
These effects were determined by visual inspection of GFP-positive cells under an inverted fluorescence microscope. In addition, the occurrence of apoptosis of these transfected cell samples was confirmed by staining the cells with trypan blue, propidium iodide, or Hoescht 33342 to examine the cellular or nuclear morphology.
Compounds that disrupt other types of aggregates, for example, amyloid fibril aggregates were tested for their ability to disrupt pre-formed polyglutamine aggregates. HeLa Cells were transfected with a Q79-GFP construct. Six hours later, Iota-carrageenan, dextran, minocycline, rolitetracycline, and Chrysamine G (1 nM to 100 μM) were each incubated with the cells. Seventy-two hours post-transfection, the cells were evaluated for the occurrence of cell death, by visual inspection under an inverted fluorescence microscope.

With `Nc1c(/N=N/c2ccc(-c3ccc(/N=N/c4cc(S(=O)(=O)O)c5ccccc5c4N)cc3)cc2)cc(S(=O)(=O)O)c2ccccc12` [Congo red, diphenyldiazo-bis-alpha-napthylaminesulfonate] the “decrease of pre-formed polyglutamine aggregates” value (Q79-GFP aggregates; 1 nM to 100 μM, visually assessed) was “decreased the pre-formed polyglutamine aggregates”, the “dissolution or disruption of pre-formed expanded polyglutamine repeat aggregates” value (Q79-GFP aggregates; 100 μM each, visually examined) was “dissolution or disruption of pre-formed expanded polyglutamine repeat aggregates were detected” and the “apoptosis induced by overexpression of caspase-1, -8, or -11” value (caspase-1, -8, or -11) was “had no effect on caspase induced cell death”. The “disassembly of pre-formed poly-Q oligomers” value [1] was “caused the disassembly of pre-formed poly-Q oligomers”, the “cell death, as indicated by morphology” value ([2]; HA-tagged Q79-GFP, caspase-8 experiment) was “significantly inhibited ATP loss and cell death” and the “Polyglutamine-induced Cell Death” value ([2]; Q79-GFP, compound added six hours after transfection, 1 nM to 100 μM (FIG. 4A: 100 μM), seventy-two hours post-transfection) was “+ (Each + indicates approximately 20% cell death.)”.
